ChEMBL document CHEMBL1649329, “Differential selection of single-step AmpC or efflux mutants of Pseudomonas aeruginosa by using cefepime, ceftazidime, or ceftobiprole” (2010)
Values after ≈ are worked out from the molar mass of the structure shown.

What was measured:
Assay type in all cases: functional
Pseudomonas aeruginosa [1] = assay: Antimicrobial activity against wild type Pseudomonas aeruginosa ATCC 27853 by broth macrodilution method
Pseudomonas aeruginosa [2] = assay: Antimicrobial activity against Pseudomonas aeruginosa OC 12070 by broth macrodilution method
Pseudomonas aeruginosa [3] = assay: Antimicrobial activity against Pseudomonas aeruginosa OC 12070 expressing 12 fold elevated mexX expression and 25 fold elevated mexY expression by broth macrodilution method
Pseudomonas aeruginosa [4] = assay: Antimicrobial activity against Pseudomonas aeruginosa OC 12070 expressing 8 fold elevated AmpC expression by broth macrodilution method
Pseudomonas aeruginosa [5] = assay: Antimicrobial activity against Pseudomonas aeruginosa OC 11678 expressing 15 fold elevated AmpC expression by broth macrodilution method
Pseudomonas aeruginosa [6] = assay: Antimicrobial activity against Pseudomonas aeruginosa OC 11678 expressing 31 fold elevated mexX expression and 17 fold elevated mexY expression by broth macrodilution method
Pseudomonas aeruginosa [7] = assay: Antimicrobial activity against Pseudomonas aeruginosa OC 11678 expressing 30 fold elevated AmpC expression by broth macrodilution method
Pseudomonas aeruginosa [8] = assay: Antimicrobial activity against wild type Pseudomonas aeruginosa PAO1 by broth macrodilution method
Pseudomonas aeruginosa [9] = assay: Antimicrobial activity against Pseudomonas aeruginosa OC 11053 by broth macrodilution method
Pseudomonas aeruginosa [10] = assay: Antimicrobial activity against Pseudomonas aeruginosa OC 12070 expressing 37 fold elevated AmpC expression by broth macrodilution method
Pseudomonas aeruginosa [11] = assay: Antimicrobial activity against Pseudomonas aeruginosa OC 11678 expressing 33 fold elevated AmpC expression by broth macrodilution method
Pseudomonas aeruginosa [12] = assay: Antimicrobial activity against Pseudomonas aeruginosa OC 11678 expressing 9 fold elevated AmpC expression by broth macrodilution method
Pseudomonas aeruginosa [13] = assay: Antimicrobial activity against wild type Pseudomonas aeruginosa
Pseudomonas aeruginosa [14] = assay: Antimicrobial activity against Pseudomonas aeruginosa OC 12070 expressing 151 fold elevated mexX expression and 127 fold elevated mexY expression by broth macrodilution method
Pseudomonas aeruginosa [15] = assay: Antimicrobial activity against Pseudomonas aeruginosa OC 12070 expressing 36 fold elevated mexX expression and 39 fold elevated mexY expression by broth macrodilution method
Pseudomonas aeruginosa [16] = assay: Antimicrobial activity against Pseudomonas aeruginosa OC 12070 expressing 65 fold elevated mexX expression and 106 fold elevated mexY expression by broth macrodilution method
Pseudomonas aeruginosa [17] = assay: Antimicrobial activity against Pseudomonas aeruginosa OC 4351 by broth macrodilution method
Pseudomonas aeruginosa [18] = assay: Antimicrobial activity against Pseudomonas aeruginosa OC 12070 expressing 10 fold elevated mexX expression and 23 fold elevated mexY expression by broth macrodilution method
Pseudomonas aeruginosa [19] = assay: Antimicrobial activity against Pseudomonas aeruginosa OC 12070 expressing 27 fold elevated mexX expression and 49 fold elevated mexY expression by broth macrodilution method
Pseudomonas aeruginosa [20] = assay: microbe, parasite or virus in culture; conditions: OC 11678
Description: Antimicrobial activity against Pseudomonas aeruginosa OC 11678 expressing 27 fold elevated mexX expression and 16 fold elevated mexY expression by broth macrodilution method

Pseudomonas aeruginosa [21] = assay: Antimicrobial activity against Pseudomonas aeruginosa OC 12070 expressing 5 fold elevated AmpC expression by broth macrodilution method
Pseudomonas aeruginosa [22] = assay: Antimicrobial activity against Pseudomonas aeruginosa OC 12070 expressing 107 fold elevated mexX expression and 155 fold elevated mexY expression by broth macrodilution method
Pseudomonas aeruginosa [23] = assay: Antimicrobial activity against Pseudomonas aeruginosa OC 11678 expressing 36 fold elevated AmpC expression by broth macrodilution method
Pseudomonas aeruginosa [24] = assay: Antimicrobial activity against Pseudomonas aeruginosa OC 12070 expressing 7 fold elevated AmpC expression by broth macrodilution method
Pseudomonas aeruginosa [25] = assay: Antimicrobial activity against Pseudomonas aeruginosa OC 12070 expressing 11 fold elevated mexX expression and 10 fold elevated mexY expression by broth macrodilution method
Pseudomonas aeruginosa [26] = assay: Antimicrobial activity against Pseudomonas aeruginosa OC 11678 expressing 34 fold elevated AmpC expression by broth macrodilution method
Pseudomonas aeruginosa [27] = assay: Antimicrobial activity against Pseudomonas aeruginosa OC 11678 expressing 40 fold elevated AmpC expression by broth macrodilution method
Pseudomonas aeruginosa [28] = assay: Antimicrobial activity against Pseudomonas aeruginosa OC 11678 expressing 32 fold elevated AmpC expression by broth macrodilution method
Pseudomonas aeruginosa [29] = assay: Antimicrobial activity against Pseudomonas aeruginosa OC 11492 by broth macrodilution method
Pseudomonas aeruginosa [30] = assay: Antimicrobial activity against Pseudomonas aeruginosa OC 12261 by broth macrodilution method
Pseudomonas aeruginosa [31] = assay: Antimicrobial activity against Pseudomonas aeruginosa OC 11678 expressing 71 fold elevated mexX expression and 43 fold elevated mexY expression by broth macrodilution method
Pseudomonas aeruginosa [32] = assay: Antimicrobial activity against Pseudomonas aeruginosa OC 11678 expressing 29 fold elevated AmpC expression by broth macrodilution method
Pseudomonas aeruginosa [33] = assay: Antimicrobial activity against Pseudomonas aeruginosa OC 12070 expressing 11 fold elevated AmpC expression by broth macrodilution method
Pseudomonas aeruginosa [34] = assay: Antimicrobial activity against Pseudomonas aeruginosa OC 11678 by broth macrodilution method
Pseudomonas aeruginosa [35] = assay: Antimicrobial activity against Pseudomonas aeruginosa OC 11678 expressing 31 fold elevated AmpC expression by broth macrodilution method

Structure (SMILES)	MIC (Pseudomonas aeruginosa [1]) [µg/mL]	MIC (Pseudomonas aeruginosa [2]) [µg/mL]	MIC (Pseudomonas aeruginosa [3]) [µg/mL]	MIC (Pseudomonas aeruginosa [4]) [µg/mL]	MIC (Pseudomonas aeruginosa [5]) [µg/mL]	MIC (Pseudomonas aeruginosa [6]) [µg/mL]	MIC (Pseudomonas aeruginosa [7]) [µg/mL]	MIC (Pseudomonas aeruginosa [8]) [µg/mL]	MIC (Pseudomonas aeruginosa [9]) [µg/mL]	MIC (Pseudomonas aeruginosa [10]) [µg/mL]	MIC (Pseudomonas aeruginosa [11]) [µg/mL]	MIC (Pseudomonas aeruginosa [12]) [µg/mL]	MIC50 (Pseudomonas aeruginosa [13]) [µg/mL]	MIC (Pseudomonas aeruginosa [14]) [µg/mL]	MIC (Pseudomonas aeruginosa [15]) [µg/mL]	MIC (Pseudomonas aeruginosa [16]) [µg/mL]	MIC (Pseudomonas aeruginosa [17]) [µg/mL]	MIC (Pseudomonas aeruginosa [18]) [µg/mL]	MIC (Pseudomonas aeruginosa [19]) [µg/mL]	MIC (Pseudomonas aeruginosa [20]) [µg/mL]	other results
CO/N=C(\C(=O)N[C@@H]1C(=O)N2C(C(=O)[O-])=C(C[N+]3(C)CCCC3)CS[C@H]12)c1csc(N)n1 [CEFEPIME]	2 (≈ 4.16 µM)	2 (≈ 4.16 µM)	8 (≈ 16.6 µM)	16 (≈ 33.3 µM)	32 (≈ 66.6 µM)	8 (≈ 16.6 µM)	32 (≈ 66.6 µM)	2 (≈ 4.16 µM)	4 (≈ 8.32 µM)	16 (≈ 33.3 µM)	32 (≈ 66.6 µM)	32 (≈ 66.6 µM)	4 (≈ 8.32 µM)	8 (≈ 16.6 µM)	8 (≈ 16.6 µM)	16 (≈ 33.3 µM)	2 (≈ 4.16 µM)	8 (≈ 16.6 µM)	8 (≈ 16.6 µM)	8 (≈ 16.6 µM)	MIC (Pseudomonas aeruginosa [21]): 8 µg/mL (≈ 16.6 µM); MIC (Pseudomonas aeruginosa [22]): 16 µg/mL (≈ 33.3 µM); MIC (Pseudomonas aeruginosa [23]): 32 µg/mL (≈ 66.6 µM); MIC (Pseudomonas aeruginosa [24]): 16 µg/mL (≈ 33.3 µM); MIC (Pseudomonas aeruginosa [25]): 8 µg/mL (≈ 16.6 µM); MIC (Pseudomonas aeruginosa [26]): 32 µg/mL (≈ 66.6 µM); MIC (Pseudomonas aeruginosa [27]): 32 µg/mL (≈ 66.6 µM); MIC (Pseudomonas aeruginosa [28]): 32 µg/mL (≈ 66.6 µM); MIC (Pseudomonas aeruginosa [29]): 4 µg/mL (≈ 8.32 µM); MIC (Pseudomonas aeruginosa [30]): 4 µg/mL (≈ 8.32 µM); MIC (Pseudomonas aeruginosa [31]): 32 µg/mL (≈ 66.6 µM); MIC (Pseudomonas aeruginosa [32]): 32 µg/mL (≈ 66.6 µM); MIC (Pseudomonas aeruginosa [33]): 16 µg/mL (≈ 33.3 µM); MIC (Pseudomonas aeruginosa [34]): 8 µg/mL (≈ 16.6 µM); MIC (Pseudomonas aeruginosa [35]): 32 µg/mL (≈ 66.6 µM)
CC(C)(O/N=C(\C(=O)N[C@@H]1C(=O)N2C(C(=O)[O-])=C(C[n+]3ccccc3)CS[C@H]12)c1csc(N)n1)C(=O)O [CEFTAZIDIME]	2 (≈ 3.66 µM)	2 (≈ 3.66 µM)	4 (≈ 7.32 µM)	32 (≈ 58.5 µM)	64 (≈ 117 µM)	4 (≈ 7.32 µM)	128 (≈ 234 µM)	1 (≈ 1.83 µM)	1 (≈ 1.83 µM)	32 (≈ 58.5 µM)	128 (≈ 234 µM)	64 (≈ 117 µM)	2 (≈ 3.66 µM)	8 (≈ 14.6 µM)	4 (≈ 7.32 µM)	16 (≈ 29.3 µM)	1 (≈ 1.83 µM)	8 (≈ 14.6 µM)	4 (≈ 7.32 µM)	4 (≈ 7.32 µM)	MIC (Pseudomonas aeruginosa [21]): 16 µg/mL (≈ 29.3 µM); MIC (Pseudomonas aeruginosa [22]): 16 µg/mL (≈ 29.3 µM); MIC (Pseudomonas aeruginosa [23]): 64 µg/mL (≈ 117 µM); MIC (Pseudomonas aeruginosa [24]): 64 µg/mL (≈ 117 µM); MIC (Pseudomonas aeruginosa [25]): 2 µg/mL (≈ 3.66 µM); MIC (Pseudomonas aeruginosa [26]): 128 µg/mL (≈ 234 µM); MIC (Pseudomonas aeruginosa [27]): 128 µg/mL (≈ 234 µM); MIC (Pseudomonas aeruginosa [28]): 128 µg/mL (≈ 234 µM); MIC (Pseudomonas aeruginosa [29]): 2 µg/mL (≈ 3.66 µM); MIC (Pseudomonas aeruginosa [30]): 4 µg/mL (≈ 7.32 µM); MIC (Pseudomonas aeruginosa [31]): 32 µg/mL (≈ 58.5 µM); MIC (Pseudomonas aeruginosa [32]): 128 µg/mL (≈ 234 µM); MIC (Pseudomonas aeruginosa [33]): 32 µg/mL (≈ 58.5 µM); MIC (Pseudomonas aeruginosa [34]): 4 µg/mL (≈ 7.32 µM); MIC (Pseudomonas aeruginosa [35]): 128 µg/mL (≈ 234 µM)
Nc1nc(/C(=N/O)C(=O)N[C@@H]2C(=O)N3C(C(=O)O)=C(/C=C4\CCN([C@@H]5CCNC5)C4=O)CS[C@H]23)ns1 [CEFTOBIPROLE]	2 (≈ 3.74 µM)	2 (≈ 3.74 µM)	16 (≈ 29.9 µM)	4 (≈ 7.48 µM)	4 (≈ 7.48 µM)	8 (≈ 15 µM)	4 (≈ 7.48 µM)	2 (≈ 3.74 µM)	4 (≈ 7.48 µM)	2 (≈ 3.74 µM)	4 (≈ 7.48 µM)	4 (≈ 7.48 µM)	2 (≈ 3.74 µM)	16 (≈ 29.9 µM)	16 (≈ 29.9 µM)	16 (≈ 29.9 µM)	2 (≈ 3.74 µM)	16 (≈ 29.9 µM)	16 (≈ 29.9 µM)	8 (≈ 15 µM)	MIC (Pseudomonas aeruginosa [21]): 4 µg/mL (≈ 7.48 µM); MIC (Pseudomonas aeruginosa [22]): 16 µg/mL (≈ 29.9 µM); MIC (Pseudomonas aeruginosa [23]): 4 µg/mL (≈ 7.48 µM); MIC (Pseudomonas aeruginosa [24]): 4 µg/mL (≈ 7.48 µM); MIC (Pseudomonas aeruginosa [25]): 8 µg/mL (≈ 15 µM); MIC (Pseudomonas aeruginosa [26]): 4 µg/mL (≈ 7.48 µM); MIC (Pseudomonas aeruginosa [27]): 4 µg/mL (≈ 7.48 µM); MIC (Pseudomonas aeruginosa [28]): 4 µg/mL (≈ 7.48 µM); MIC (Pseudomonas aeruginosa [29]): 8 µg/mL (≈ 15 µM); MIC (Pseudomonas aeruginosa [30]): 4 µg/mL (≈ 7.48 µM); MIC (Pseudomonas aeruginosa [31]): 32 µg/mL (≈ 59.9 µM); MIC (Pseudomonas aeruginosa [32]): 8 µg/mL (≈ 15 µM); MIC (Pseudomonas aeruginosa [33]): 4 µg/mL (≈ 7.48 µM); MIC (Pseudomonas aeruginosa [34]): 4 µg/mL (≈ 7.48 µM); MIC (Pseudomonas aeruginosa [35]): 4 µg/mL (≈ 7.48 µM)
